Laboratory results from publication PMC11956013, “Structure–Activity Relationships and Evaluation of 2-(Heteroaryl-cycloalkyl)-1H-indoles as Tauopathy Positron Emission Tomography Radiotracers” (Journal of Medicinal Chemistry, 2025).

What was measured:
Na+ channel (site 2) = assay: Eurofins panel: Na+ channel (site 2) (antagonist radioligand); type: binding; settings: compound concentration 1.0E-05 M
5-HT2C (h) = biological target: T1, 5-HT2C (h) (Homo sapiens, UniProt P28335); assay: Eurofins panel: 5-HT2C (h) (agonist radioligand); type: binding; settings: 1.0E-05 M; 5-HT2C (h) (agonist radioligand)
T1 construct: purchased Eurofins (contract screening, CNS SafetyScreen panel)
T1 sequence (P28335 33-458): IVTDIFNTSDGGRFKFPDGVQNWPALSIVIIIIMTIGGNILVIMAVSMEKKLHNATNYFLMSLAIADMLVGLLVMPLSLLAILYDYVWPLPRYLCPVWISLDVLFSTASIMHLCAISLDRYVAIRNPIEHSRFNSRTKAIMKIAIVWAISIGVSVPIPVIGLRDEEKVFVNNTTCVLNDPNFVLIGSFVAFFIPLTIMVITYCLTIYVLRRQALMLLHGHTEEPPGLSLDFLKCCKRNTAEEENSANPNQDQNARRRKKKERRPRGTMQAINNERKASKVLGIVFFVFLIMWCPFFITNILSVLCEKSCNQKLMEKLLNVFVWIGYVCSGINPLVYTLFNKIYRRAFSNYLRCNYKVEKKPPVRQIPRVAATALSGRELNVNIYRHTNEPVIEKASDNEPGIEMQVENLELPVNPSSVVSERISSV

Y2 (h) = Y2 (h) (Homo sapiens, UniProt P49146); settings: compound concentration 1.0E-05 M
[1] = biological target: norepinephrine transporter (h) (Homo sapiens, UniProt P23975); settings: compound concentration 1.0E-05 M
human 5-HT2B = biological target: T2, human 5-HT2B (Homo sapiens, UniProt P41595); assay: Eurofins CNS SafetyScreen panel: 5-HT2B (vs ± DOI); type: binding
T2 construct: purchased Eurofins (contract screening, CNS SafetyScreen panel)
T2 sequence (P41595 whole entry): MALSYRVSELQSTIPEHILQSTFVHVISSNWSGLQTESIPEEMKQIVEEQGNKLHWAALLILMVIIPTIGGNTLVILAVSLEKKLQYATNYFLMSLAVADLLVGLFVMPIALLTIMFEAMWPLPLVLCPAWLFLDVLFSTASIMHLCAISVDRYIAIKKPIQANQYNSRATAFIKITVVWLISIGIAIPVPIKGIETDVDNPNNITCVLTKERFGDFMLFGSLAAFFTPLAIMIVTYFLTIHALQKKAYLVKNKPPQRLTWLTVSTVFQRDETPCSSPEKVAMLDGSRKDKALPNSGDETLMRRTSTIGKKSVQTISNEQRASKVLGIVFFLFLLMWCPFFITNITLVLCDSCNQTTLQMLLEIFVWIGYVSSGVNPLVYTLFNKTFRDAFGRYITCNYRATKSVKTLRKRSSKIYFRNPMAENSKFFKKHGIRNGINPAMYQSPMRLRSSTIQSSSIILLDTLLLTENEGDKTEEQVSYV

5-HT1A (h) = 5-HT1A (h) (Homo sapiens, UniProt P08908); settings: 1.0E-05 M; 5-HT1A (h) (agonist radioligand)
alpha1B (h) = alpha1B (h) (Homo sapiens, UniProt P35368); settings: 1.0E-05 M; alpha1B (h) (antagonist radioligand)
beta1 (h) = beta1 (h) (Homo sapiens, UniProt P08588); settings: 1.0E-05 M; beta1 (h) (agonist radioligand)
Sequence of beta1 (h) (P08588 whole entry): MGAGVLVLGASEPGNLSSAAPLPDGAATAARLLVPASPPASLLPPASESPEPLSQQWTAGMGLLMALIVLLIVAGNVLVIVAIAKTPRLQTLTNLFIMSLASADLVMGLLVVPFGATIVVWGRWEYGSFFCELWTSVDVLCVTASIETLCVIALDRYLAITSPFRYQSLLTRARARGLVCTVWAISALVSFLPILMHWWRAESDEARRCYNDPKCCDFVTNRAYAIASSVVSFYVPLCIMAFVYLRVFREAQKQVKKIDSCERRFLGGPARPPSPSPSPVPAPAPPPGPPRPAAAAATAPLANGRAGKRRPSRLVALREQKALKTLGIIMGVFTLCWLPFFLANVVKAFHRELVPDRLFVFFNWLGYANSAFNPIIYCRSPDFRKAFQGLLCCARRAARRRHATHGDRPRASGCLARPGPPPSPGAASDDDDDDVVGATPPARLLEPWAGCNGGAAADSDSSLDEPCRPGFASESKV

5-HT4e (h) = 5-HT4e (h) (Homo sapiens, UniProt Q13639); assay: Eurofins panel: 5-HT4e (h) (antagonist radioligand); settings: 1.0E-05 M; 5-HT4e (h) (antagonist radioligand)
MT1 (ML1A) (h) = MT1 (ML1A) (h) (Homo sapiens, UniProt P48039); assay: MT1 (ML1A) (h) (agonist radioligand), Eurofins assay 1538
CYP3A = CYP3A (Homo sapiens, UniProt P08684); assay: in vitro; settings: human liver microsomes, probe midazolam
Sequence of CYP3A (P08684 2-503): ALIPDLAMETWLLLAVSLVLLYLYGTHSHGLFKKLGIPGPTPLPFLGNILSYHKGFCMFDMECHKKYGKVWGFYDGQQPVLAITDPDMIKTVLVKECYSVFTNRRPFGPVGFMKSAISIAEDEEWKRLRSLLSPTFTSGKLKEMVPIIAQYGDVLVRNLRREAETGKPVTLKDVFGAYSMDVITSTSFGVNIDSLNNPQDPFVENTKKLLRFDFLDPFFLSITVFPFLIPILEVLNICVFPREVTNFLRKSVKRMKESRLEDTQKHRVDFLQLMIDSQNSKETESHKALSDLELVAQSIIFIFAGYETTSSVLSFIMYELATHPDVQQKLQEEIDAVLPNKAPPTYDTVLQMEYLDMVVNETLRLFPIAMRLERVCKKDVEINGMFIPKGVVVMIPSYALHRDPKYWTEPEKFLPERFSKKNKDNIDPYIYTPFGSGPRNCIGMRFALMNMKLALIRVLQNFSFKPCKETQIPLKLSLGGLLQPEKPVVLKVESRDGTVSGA

D2L (h) = D2L (h) (Homo sapiens, UniProt P14416); assay: biochemical
IRK (h) (InsR) = IRK (h) (InsR) (Homo sapiens, UniProt P06213); assay: biochemical
[2] = biological target: carbonic anhydrase II (h) (Homo sapiens, UniProt P00918); settings: 1.0E-05 M
mGluR5 (h) = mGluR5 (h) (Homo sapiens, UniProt P41594); assay: Eurofins panel: mGluR5 (h) (agonist radioligand); settings: 1.0E-05 M; mGluR5 (h) (agonist radioligand)
Sequence of mGluR5 (h) (P41594 21-1212): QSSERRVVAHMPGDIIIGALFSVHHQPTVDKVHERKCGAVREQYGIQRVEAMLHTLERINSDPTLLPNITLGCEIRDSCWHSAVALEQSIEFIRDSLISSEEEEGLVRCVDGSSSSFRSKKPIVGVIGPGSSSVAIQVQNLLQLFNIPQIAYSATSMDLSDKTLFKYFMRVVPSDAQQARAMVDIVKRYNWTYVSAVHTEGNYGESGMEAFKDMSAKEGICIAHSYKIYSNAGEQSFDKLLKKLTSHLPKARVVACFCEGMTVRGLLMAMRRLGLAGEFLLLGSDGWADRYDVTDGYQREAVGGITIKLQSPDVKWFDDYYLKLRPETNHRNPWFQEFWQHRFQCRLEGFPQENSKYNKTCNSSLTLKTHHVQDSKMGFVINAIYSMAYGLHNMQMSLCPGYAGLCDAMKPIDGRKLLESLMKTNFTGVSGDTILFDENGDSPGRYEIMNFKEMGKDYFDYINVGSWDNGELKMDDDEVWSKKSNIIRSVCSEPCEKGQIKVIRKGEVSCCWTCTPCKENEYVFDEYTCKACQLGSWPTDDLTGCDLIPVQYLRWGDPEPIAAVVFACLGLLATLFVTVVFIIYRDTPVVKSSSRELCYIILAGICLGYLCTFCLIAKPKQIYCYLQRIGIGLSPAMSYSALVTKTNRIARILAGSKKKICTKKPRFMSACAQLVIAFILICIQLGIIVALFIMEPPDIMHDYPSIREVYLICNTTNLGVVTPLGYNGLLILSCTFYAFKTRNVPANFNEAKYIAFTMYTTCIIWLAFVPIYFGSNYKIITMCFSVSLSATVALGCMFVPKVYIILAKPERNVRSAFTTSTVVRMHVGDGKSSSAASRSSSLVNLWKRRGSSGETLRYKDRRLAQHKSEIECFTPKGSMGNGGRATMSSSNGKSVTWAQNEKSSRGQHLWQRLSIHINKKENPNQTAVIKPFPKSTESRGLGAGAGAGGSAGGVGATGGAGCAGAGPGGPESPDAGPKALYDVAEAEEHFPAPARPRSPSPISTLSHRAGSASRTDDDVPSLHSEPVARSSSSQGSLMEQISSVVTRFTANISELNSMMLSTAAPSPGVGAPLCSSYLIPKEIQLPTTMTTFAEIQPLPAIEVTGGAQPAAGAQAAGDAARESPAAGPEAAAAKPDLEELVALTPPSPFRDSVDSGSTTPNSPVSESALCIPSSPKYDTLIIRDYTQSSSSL

M2 (h) = M2 (h) (Homo sapiens, UniProt P08172); assay: biochemical
Sequence of M2 (h) (P08172 whole entry): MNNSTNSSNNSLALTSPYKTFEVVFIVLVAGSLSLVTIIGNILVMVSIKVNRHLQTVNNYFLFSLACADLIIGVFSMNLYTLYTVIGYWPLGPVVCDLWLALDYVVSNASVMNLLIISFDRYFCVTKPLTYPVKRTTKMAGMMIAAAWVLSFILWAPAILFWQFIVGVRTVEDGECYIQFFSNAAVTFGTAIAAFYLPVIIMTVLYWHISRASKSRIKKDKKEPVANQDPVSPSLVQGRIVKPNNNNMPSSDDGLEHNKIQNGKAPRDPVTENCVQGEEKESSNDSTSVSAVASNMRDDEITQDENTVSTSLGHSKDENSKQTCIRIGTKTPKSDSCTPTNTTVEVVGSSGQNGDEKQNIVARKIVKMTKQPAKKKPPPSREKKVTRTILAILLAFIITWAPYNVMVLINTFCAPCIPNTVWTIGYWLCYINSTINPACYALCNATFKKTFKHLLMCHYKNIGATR

NK1 (h) = NK1 (h) (Homo sapiens, UniProt P25103); settings: compound concentration 1.0E-05 M
PCP = assay: Eurofins panel: PCP (antagonist radioligand); type: binding; settings: compound concentration 1.0E-05 M
dopamine transporter (h) = dopamine transporter (h) (Homo sapiens, UniProt Q01959); assay: dopamine transporter (h) (antagonist radioligand), Eurofins assay 52
CB2 (h) = CB2 (h) (Homo sapiens, UniProt P34972); assay: CB2 (h) (agonist radioligand), Eurofins assay 37
Sequence of CB2 (h) (P34972 whole entry): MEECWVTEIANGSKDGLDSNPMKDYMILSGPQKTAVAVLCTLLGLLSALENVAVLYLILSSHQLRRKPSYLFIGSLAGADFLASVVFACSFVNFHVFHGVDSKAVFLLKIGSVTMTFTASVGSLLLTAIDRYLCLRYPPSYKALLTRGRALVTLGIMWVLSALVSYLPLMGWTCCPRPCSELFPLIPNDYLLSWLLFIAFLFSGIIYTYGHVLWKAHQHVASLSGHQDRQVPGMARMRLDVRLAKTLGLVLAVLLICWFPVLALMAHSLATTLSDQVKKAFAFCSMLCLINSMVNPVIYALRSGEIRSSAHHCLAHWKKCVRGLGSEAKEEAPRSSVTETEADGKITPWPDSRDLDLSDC

M1 (h) = biological target: T3, M1 (h) (Homo sapiens, UniProt P11229); assay: biochemical; type: binding
T3 construct: purchased Eurofins (CNS SafetyScreen panel, contract assay) assay 91
T3 sequence (P11229 whole entry): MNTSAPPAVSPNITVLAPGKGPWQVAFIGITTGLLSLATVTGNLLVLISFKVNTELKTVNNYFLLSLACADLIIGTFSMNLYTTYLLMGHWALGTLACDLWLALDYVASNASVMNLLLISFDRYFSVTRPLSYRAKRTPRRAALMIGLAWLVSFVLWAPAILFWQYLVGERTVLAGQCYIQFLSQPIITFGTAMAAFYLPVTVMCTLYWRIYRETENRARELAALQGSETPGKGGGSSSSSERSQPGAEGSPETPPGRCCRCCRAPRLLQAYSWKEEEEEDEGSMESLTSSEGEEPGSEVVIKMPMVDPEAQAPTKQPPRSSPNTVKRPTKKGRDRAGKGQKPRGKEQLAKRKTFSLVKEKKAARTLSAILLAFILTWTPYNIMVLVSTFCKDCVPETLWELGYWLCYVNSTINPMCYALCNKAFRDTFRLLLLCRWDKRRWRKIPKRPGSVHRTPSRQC

[3] = tested on: Ca2+ channel (L, verapamil site) (phenylalkylamine); assay: Eurofins panel: Ca2+ channel (L, verapamil site) (phenylalkylamine) (antagonist radioligand); type: binding; settings: 1.0E-05 M
M4 (h) = M4 (h) (Homo sapiens, UniProt P08173); assay: M4 (h) (antagonist radioligand), Eurofins assay 96
Sequence of M4 (h) (P08173 whole entry): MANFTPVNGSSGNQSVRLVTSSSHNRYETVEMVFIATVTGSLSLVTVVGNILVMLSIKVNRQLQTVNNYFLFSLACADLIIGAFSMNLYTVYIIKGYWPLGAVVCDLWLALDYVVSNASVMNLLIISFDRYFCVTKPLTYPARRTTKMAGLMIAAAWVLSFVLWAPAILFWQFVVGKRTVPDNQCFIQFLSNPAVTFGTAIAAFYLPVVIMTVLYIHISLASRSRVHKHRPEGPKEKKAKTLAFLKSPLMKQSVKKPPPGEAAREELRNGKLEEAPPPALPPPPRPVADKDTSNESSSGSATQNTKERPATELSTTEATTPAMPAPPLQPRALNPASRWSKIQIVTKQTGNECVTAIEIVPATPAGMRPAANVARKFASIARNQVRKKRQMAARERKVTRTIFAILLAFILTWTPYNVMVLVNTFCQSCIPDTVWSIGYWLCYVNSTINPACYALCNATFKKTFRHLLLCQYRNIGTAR

GABA transaminase = GABA transaminase (Rattus norvegicus, UniProt P50554); assay: GABA transaminase, Eurofins assay 461; type: biochemical; settings: Enzymatic activity; 1.0E-05 M
beta2 (h) = beta2 (h) (Homo sapiens, UniProt P07550); assay: Eurofins panel: beta2 (h) (antagonist radioligand); settings: 1.0E-05 M
[4] = biological target: human monoamine oxidase-B (MAO-B) (Homo sapiens, UniProt P27338)
Sequence of human monoamine oxidase-B (MAO-B) (P27338 whole entry): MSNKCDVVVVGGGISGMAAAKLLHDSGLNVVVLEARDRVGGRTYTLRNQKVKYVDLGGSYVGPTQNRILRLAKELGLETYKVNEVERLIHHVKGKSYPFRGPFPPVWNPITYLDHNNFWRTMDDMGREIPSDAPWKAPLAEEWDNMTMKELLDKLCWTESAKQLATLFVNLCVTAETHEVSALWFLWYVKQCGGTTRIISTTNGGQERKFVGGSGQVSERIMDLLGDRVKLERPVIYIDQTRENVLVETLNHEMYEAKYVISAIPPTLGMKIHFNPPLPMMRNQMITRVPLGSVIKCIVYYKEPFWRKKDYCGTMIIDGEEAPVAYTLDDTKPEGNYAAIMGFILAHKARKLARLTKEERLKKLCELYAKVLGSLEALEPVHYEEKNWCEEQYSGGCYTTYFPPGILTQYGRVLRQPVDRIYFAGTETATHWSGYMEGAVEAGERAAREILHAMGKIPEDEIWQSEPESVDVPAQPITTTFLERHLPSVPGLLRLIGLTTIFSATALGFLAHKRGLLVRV

H1 (h) = H1 (h) (Homo sapiens, UniProt P35367); assay: biochemical
tyrosine hydroxylase = biological target: T4, tyrosine hydroxylase (Rattus norvegicus, UniProt P04177); assay: Eurofins panel: tyrosine hydroxylase; type: biochemical; settings: compound concentration 1.0E-05 M
T4 construct: purchased Eurofins (CNS SafetyScreen panel, contract assay)

ETA (h) = ETA (h) (Homo sapiens, UniProt P25101); assay: biochemical
N neuronal alpha7 (h) = N neuronal alpha7 (h) (Homo sapiens, UniProt P36544); assay: Eurofins panel: N neuronal alpha7 (h) (antagonist radioligand); settings: compound concentration 1.0E-05 M

## Fc1nc(N2CCOCC2)ccc1-c1cc2ccccc2[nH]1 [Compound 75, 4-(6-Fluoro-5-(1H-indol-2-yl)pyridin-2-yl)morpholine]
Na+ channel (site 2)
  % Inhibition, Specific binding: -1.89E+01%
5-HT2C (h)
  % Inhibition, Specific binding: 5.817%
Y2 (h)
  % Inhibition, Specific binding: 3.943%
[1]
  % Inhibition, Specific binding: -1.11E+01%
Human 5-HT2B; 1.0E-05 M, 5-HT2B (h) (agonist radioligand)
  % Inhibition, Specific binding: 44.5993%
Human 5-HT2B; 10-μM concentration
  inhibition at human 5-HT2B (vs ± DOI): 44.6%
5-HT1A (h)
  % Inhibition, Specific binding: 11.4159%
alpha1B (h)
  % Inhibition, Specific binding: -4.91E+00%
beta1 (h)
  % Inhibition, Specific binding: 12.2039%
5-HT4e (h)
  % Inhibition, Specific binding: 10.412%
MT1 (ML1A) (h)
  inhibition at 10 µM: 13%
CYP3A
  inhibition at 10 µM: -2.45%
D2L (h)
  inhibition at 10 µM: -1.3%
IRK (h) (InsR)
  inhibition at 10 µM: -5.12%
[2]
  % Inhibition, Enzymatic activity: -2.68E+01%
mGluR5 (h)
  % Inhibition, Specific binding: -1.20E+01%
M2 (h)
  inhibition at 10 µM: -12.8%
NK1 (h)
  % Inhibition, Specific binding: 21.8946%
PCP
  % Inhibition, Specific binding: -3.84E+00%
Dopamine transporter (h)
  inhibition at 10 µM: 17.2%
CB2 (h)
  inhibition at 10 µM: -17.9%
M1 (h)
  inhibition at 10 µM: -8.86%
[3]
  % Inhibition, Specific binding: -2.08E+01%
M4 (h)
  inhibition at 10 µM: -20.6%
GABA transaminase
  inhibition at 10 µM: -0.726%
beta2 (h)
  % Inhibition, Specific binding: 4.9424%
[4]
  inhibition at human MAO-B (vs deprenyl): 61%
H1 (h)
  inhibition at 10 µM: -3.1%
Tyrosine hydroxylase
  % Inhibition, Enzymatic activity: -8.91E+00%
ETA (h)
  inhibition at 10 µM: 4.29%
N neuronal alpha7 (h)
  % Inhibition, Specific binding: -7.00E+00%
